Reference: patent US11739098B2 (BRISTOL-MYERS SQUIBB COMPANY, priority 2017, dated 2023)

How the values were obtained:
Assay type in all cases: cell-based
human TLR7 = target: T1, human TLR7 (Homo sapiens, UniProt Q9NYK1); test: TLR7 inhibition reporter assay (HEK-Blue cells, SEAP reporter, gardiquimod stimulation); details: HEK-Blue cells overexpressing human TLR7, SEAP reporter, gardiquimod 7.5 μM
T1 construct: host or cells: HEK-Blue cells (HEK293-derived reporter line)
T1 sequence (Q9NYK1 27-1049): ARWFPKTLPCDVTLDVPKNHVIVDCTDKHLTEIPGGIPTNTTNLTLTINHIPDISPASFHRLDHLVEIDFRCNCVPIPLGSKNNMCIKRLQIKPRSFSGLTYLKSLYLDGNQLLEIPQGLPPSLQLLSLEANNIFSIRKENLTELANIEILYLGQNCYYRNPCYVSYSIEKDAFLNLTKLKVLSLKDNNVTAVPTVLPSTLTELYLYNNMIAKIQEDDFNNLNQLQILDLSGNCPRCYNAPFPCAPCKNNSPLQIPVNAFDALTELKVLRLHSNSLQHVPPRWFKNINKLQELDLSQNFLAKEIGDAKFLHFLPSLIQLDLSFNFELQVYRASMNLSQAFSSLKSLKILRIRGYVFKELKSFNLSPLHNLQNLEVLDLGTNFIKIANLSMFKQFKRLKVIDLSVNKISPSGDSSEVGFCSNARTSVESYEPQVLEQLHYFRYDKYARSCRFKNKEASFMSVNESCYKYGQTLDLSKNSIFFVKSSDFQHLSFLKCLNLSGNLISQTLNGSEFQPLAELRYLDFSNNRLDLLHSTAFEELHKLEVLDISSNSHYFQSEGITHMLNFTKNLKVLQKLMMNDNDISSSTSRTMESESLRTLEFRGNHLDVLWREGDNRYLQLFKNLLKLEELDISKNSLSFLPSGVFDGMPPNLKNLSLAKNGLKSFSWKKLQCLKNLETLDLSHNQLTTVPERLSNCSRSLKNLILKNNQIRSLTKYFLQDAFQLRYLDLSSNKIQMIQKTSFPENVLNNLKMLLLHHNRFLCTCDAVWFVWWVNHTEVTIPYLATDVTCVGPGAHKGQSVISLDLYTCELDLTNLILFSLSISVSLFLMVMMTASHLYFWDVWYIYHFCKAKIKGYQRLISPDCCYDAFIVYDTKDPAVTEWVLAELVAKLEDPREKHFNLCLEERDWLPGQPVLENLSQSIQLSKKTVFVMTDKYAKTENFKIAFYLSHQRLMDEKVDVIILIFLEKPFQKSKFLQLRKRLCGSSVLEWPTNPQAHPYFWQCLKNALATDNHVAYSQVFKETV
Outline: (§1)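 Percent inhibition of agonist-induced SEAP secretion in HEK-Blue cells after 22 h at 37 °C. Stimuli: 7.5 μM gardiquimod, 15.9 μM R848, 5 nM ODN2006 for TLR7, TLR8 and TLR9, added after 30 min compound exposure over a 0.05 nM–50 μM range.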

human TLR8 = target: T2, human TLR8 (Homo sapiens, UniProt Q9NR97); test: TLR8 inhibition reporter assay (HEK-Blue cells, SEAP reporter, R848 stimulation); details: HEK-Blue cells overexpressing human TLR8, SEAP reporter, R848 15.9 μM
T2 construct: host or cells: HEK-Blue cells (HEK293-derived reporter line)
T2 sequence (Q9NR97 27-1041): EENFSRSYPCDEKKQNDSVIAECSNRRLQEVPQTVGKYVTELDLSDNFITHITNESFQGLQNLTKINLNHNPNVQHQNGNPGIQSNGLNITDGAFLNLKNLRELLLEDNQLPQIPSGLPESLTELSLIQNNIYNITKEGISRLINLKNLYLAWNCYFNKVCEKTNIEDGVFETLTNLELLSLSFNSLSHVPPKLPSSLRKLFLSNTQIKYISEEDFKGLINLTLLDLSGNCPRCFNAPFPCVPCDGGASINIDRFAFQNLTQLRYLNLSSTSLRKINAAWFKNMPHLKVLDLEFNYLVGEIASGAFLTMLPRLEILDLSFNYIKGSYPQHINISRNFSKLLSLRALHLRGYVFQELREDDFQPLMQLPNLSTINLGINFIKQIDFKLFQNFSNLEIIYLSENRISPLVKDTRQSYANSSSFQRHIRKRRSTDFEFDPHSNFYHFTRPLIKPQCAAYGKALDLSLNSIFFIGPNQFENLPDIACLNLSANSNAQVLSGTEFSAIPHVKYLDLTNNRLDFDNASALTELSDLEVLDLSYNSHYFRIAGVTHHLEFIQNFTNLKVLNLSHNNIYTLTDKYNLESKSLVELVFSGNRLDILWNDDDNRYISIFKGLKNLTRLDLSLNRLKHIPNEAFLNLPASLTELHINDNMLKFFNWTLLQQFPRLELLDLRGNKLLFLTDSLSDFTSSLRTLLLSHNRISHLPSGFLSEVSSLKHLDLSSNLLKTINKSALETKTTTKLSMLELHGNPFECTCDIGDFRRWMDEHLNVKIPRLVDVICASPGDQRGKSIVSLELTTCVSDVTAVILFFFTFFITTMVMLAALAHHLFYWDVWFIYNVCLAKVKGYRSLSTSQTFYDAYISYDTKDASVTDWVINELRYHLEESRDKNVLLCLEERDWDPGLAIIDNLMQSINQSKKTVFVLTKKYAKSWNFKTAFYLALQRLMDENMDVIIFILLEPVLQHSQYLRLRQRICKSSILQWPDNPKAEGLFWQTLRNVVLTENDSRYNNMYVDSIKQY
Outline: as §1

human TLR9 = target: T3, human TLR9 (Homo sapiens, UniProt Q9NR96); test: TLR9 inhibition reporter assay (HEK-Blue cells, SEAP reporter, ODN2006 stimulation); details: HEK-Blue cells overexpressing human TLR9, SEAP reporter, ODN2006 5 nM
T3 construct: host or cells: HEK-Blue cells (HEK293-derived reporter line)
T3 sequence (Q9NR96 26-1032): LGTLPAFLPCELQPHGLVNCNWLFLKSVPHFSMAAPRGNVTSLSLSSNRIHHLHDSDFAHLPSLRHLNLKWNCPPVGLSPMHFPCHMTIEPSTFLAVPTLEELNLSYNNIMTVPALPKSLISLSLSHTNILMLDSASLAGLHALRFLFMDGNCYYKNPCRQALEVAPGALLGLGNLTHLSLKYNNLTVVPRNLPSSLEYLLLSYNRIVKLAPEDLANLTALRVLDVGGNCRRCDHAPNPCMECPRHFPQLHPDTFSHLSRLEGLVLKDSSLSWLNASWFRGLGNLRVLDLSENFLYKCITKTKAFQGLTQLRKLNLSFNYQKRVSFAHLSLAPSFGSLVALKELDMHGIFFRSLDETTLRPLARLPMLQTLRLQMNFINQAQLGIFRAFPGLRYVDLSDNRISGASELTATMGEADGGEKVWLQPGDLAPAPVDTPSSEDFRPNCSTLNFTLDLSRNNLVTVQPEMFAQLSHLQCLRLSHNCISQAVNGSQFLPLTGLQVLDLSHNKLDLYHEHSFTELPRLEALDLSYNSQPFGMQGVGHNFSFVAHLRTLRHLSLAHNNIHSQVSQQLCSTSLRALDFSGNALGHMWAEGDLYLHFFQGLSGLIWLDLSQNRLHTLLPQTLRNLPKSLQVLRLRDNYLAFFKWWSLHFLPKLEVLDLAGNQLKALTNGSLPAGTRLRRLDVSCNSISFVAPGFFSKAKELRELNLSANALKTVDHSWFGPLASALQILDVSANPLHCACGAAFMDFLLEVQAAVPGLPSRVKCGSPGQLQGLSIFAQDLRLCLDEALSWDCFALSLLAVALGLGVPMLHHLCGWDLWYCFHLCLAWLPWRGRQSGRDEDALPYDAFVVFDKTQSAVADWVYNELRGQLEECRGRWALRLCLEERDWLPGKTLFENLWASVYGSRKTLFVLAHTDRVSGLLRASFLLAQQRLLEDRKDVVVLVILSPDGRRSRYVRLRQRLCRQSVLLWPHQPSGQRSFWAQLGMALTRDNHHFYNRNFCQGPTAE
Outline: as §1

| Structure (SMILES) | IC50 (human TLR7) [µM] | IC50 (human TLR8) [µM] | IC50 (human TLR9) [µM] |
| --- | --- | --- | --- |
| Cc1c(-c2[nH]c3ccc(C4CCN(C5COC5)CC4)cc3c2C(C)C)cn2nnnc2c1C [Example 739, 6-(3-isopropyl-5-(1-(oxetan-3-yl)piperidin-4-yl)-1H-indol-2-yl)-7,8-dimethyltetrazolo[1,5-a]pyridine] | < 0.1 | < 0.1 | 1 to 50 |
| Cc1cc2nnnn2cc1-c1[nH]c2ccc(C3CCNCC3)cc2c1C(C)C [Example 76, 6-(3-isopropyl-5-(piperidin-4-yl)-1H-indol-2-yl)-7-methyltetrazolo[1,5-a]pyridine] | < 0.1 | < 0.1 | 1 to 50 |
| CC(C)c1c(-c2cc(CO)c3nnnn3c2)[nH]c2ccc(C3CCN(C4COC4)CC3)cc12 [Example 738, (6-(3-isopropyl-5-(1-(oxetan-3-yl)piperidin-4-yl)-1H-indol-2-yl)tetrazolo[1,5-a]pyridin-8-yl)methanol] | < 0.1 | < 0.1 | 1 to 50 |
| Cc1cc(-c2[nH]c3ccc(C4CCN(C(=O)CCN5CC(C)(C)OC(C)(C)C5)CC4)cc3c2C(C)C)cn2nnnc12 [Example 621, 1-(4-(3-isopropyl-2-(8-methyltetrazolo[1,5-a]pyridin-6-yl)-1H-indol-5-yl)piperidin-1-yl)-3-(2,2,6,6-tetramethylmorpholino)propan-1-one] | < 0.1 | < 0.1 | 1 to 50 |
| Cc1nc2c(C)cc(-c3[nH]c4ccc(C5CCN(CC(=O)N(C)C)CC5)cc4c3C(C)C)cn2c1C [Example 396, 2-(4-(3-isopropyl-2-(2,3,8-trimethylimidazo[1,2-a]pyridin-6-yl)-1H-indol-5-yl)piperidin-1-yl)-N,N-dimethylacetamide] | < 0.1 | 0.1 to 1 | 0.1 to 1 |
| Cc1c(-c2[nH]c3ccc(C4CCN(CC(=O)N(C)C)CC4)cc3c2C(C)C)nn2ncnc2c1C [Example 280, 2-(4-(2-(7,8-dimethyl-[1,2,4]triazolo[1,5-b]pyridazin-6-yl)-3-isopropyl-1H-indol-5-yl)piperidin-1-yl)-N,N-dimethylacetamide] | < 0.1 | < 0.1 | 1 to 50 |
| Cc1c(-c2ccnc3c2ccn3C)[nH]c2ccc(C3CCN(C4CCN(C(C)C)CC4)CC3)cc12 [Example 844, 4-(5-(1′-isopropyl-[1,4′-bipiperidin]-4-yl)-3-methyl-1H-indol-2-yl)-1-methyl-1H-pyrrolo[2,3-b]pyridine] | 1 to 50 | < 0.1 | < 0.1 |
| CC(C)c1c(-c2ccc3nncn3n2)[nH]c2ccc(C3CCNCC3)cc12 [Example 185, 6-(3-isopropyl-5-(piperidin-4-yl)-1H-indol-2-yl)-[1,2,4] triazolo[4,3-b]pyridazine] | 0.1 to 1 | 0.1 to 1 | 1 to 50 |
| Cc1c(-c2ccnc3[nH]ccc23)[nH]c2ccc(C3CCN(C4CCN(C)CC4)CC3)cc12 [Example 810, 4-(3-methyl-5-(1′-methyl-[1,4′-bipiperidin]-4-yl)-1H-indol-2-yl)-1H-pyrrolo[2,3-b]pyridine] | < 0.1 | < 0.1 | 0.1 to 1 |
| CC(C)c1c(-c2cnc3cn[nH]c3c2)[nH]c2ccc(C3CCNCC3)cc12 [Example 63, 6-(3-isopropyl-5-(piperidin-4-yl)-1H-indol-2-yl)-1H-pyrazolo[4,3-b]pyridine] | < 0.1 | < 0.1 | 0.1 to 1 |
| Cc1cc(-c2[nH]c3ccc(C4CCN(C(=O)CCN5CCC6CC65)CC4)cc3c2C(C)C)cn2nnnc12 (stereo not drawn) [Example 632, 3-(2-azabicyclo[3.1.0]hexan-2-yl)-1-(4-(3-isopropyl-2-(8-methyltetrazolo[1,5-a]pyridin-6-yl)-1H-indol-5-yl)piperidin-1-yl)propan-1-one] | < 0.1 | < 0.1 | 1 to 50 |
| CNC(=O)CN1CCC(c2ccc3[nH]c(-c4cc(F)c5nccn5c4)c(CC(F)F)c3c2)CC1 [Example 411, 2-(4-(3-(2,2-difluoroethyl)-2-(8-fluoroimidazo[1,2-a]pyridin-6-yl)-1H-indol-5-yl)piperidin-1-yl)-N-methylacetamide] | < 0.1 | 0.1 to 1 | 1 to 50 |
| CC(=O)N1CCN(CC(=O)N2CCC(c3ccc4[nH]c(-c5ccnc6[nH]ncc56)c(C(C)C)c4c3)CC2)CC1 [Example 574, 2-(4-acetylpiperazin-1-yl)-1-(4-(3-isopropyl-2-(1H-pyrazolo[3,4-b]pyridin-4-yl)-1H-indol-5-yl)piperidin-1-yl)ethan-1-one] | < 0.1 | < 0.1 | > 50 |
| CCc1c(-c2ccnc3[nH]ncc23)[nH]c2ccc(C3CCN(C(=O)CNC)CC3)cc12 [Example 462, 1-(4-(3-ethyl-2-(1H-pyrazolo [3,4-b]pyridin-4-yl)-1H-indol-5-yl)piperidin-1-yl)-2-(methylamino)ethan-1-one] | < 0.1 | < 0.1 | 1 to 50 |
